Eleven compounds from ChEMBL document CHEMBL1201862, “PubChem BioAssay data set” (2004) can be followed below.

Test systems include SR; Hs-578T; UACC-257; HL-60; M14; OVCAR-3; HT-29; MCF7; CAKI-1; NCI-H23; RPMI-8226; RXF 393; 786-0; UACC-62; SNB-19; COLO 205; SF-295; LOX IMVI; PC-3; NCI-H226.
Assay in all cases: NCI-60 cell line screen, 48 h

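Five concentrations, 48 hours, 96-well plates. Abbreviation: GI50, concentration required for 50% inhibition of growth.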 Active and inactive are the calls of the source. No stated cut-off is given here; in the data, active = GI50 up to about 1.1 µM and inactive = higher.

Take `COC1=CC(=O)c2c(cc(COP(=O)(N(C)CCBr)N(C)CCBr)n2C)C1=O`: the GI50 was < 0.01 µM (active) with SR; 1.77 µM (inactive) in the experiment on Hs-578T; 2.7 µM (inactive) with UACC-257; 0.0543 µM (active) in the experiment with HL-60; 0.614 µM (active) with M14; 2.16 µM (inactive) in the experiment with OVCAR-3. Also, the GI50 in the experiment on HT-29 is 0.0413 µM (active); with MCF7, < 0.0182 µM (active); in the experiment with CAKI-1, < 0.0182 µM (active); with NCI-H23 it was < 0.0212 µM (active); in the experiment with RPMI-8226, 0.385 µM (active); in the experiment on RXF 393, 0.229 µM (active). For the same compound, the GI50 was < 0.0204 µM (active) with 786-0; 0.414 µM (active) in the experiment on UACC-62; 0.798 µM (active) in the experiment with SNB-19; 0.865 µM (active) in the experiment on COLO 205; < 0.0164 µM (active) with SF-295; < 0.0238 µM (active) with LOX IMVI. In addition, the GI50 in the experiment on PC-3 was 6.82 µM (inactive).
In the case of `N/N=C1/CCCc2nonc21`, the GI50 in the experiment with SR, in the experiment on Hs-578T, in the experiment on UACC-257, in the experiment on HL-60, in the experiment on M14 and in the experiment on OVCAR-3 was > 100 µM (inactive) in each case. In addition, the GI50 in the experiment on HT-29, in the experiment with MCF7, in the experiment on CAKI-1, in the experiment on NCI-H23, with RPMI-8226 and in the experiment with RXF 393 was > 100 µM (inactive) throughout. The GI50 with 786-0, in the experiment with UACC-62, with COLO 205, in the experiment with SF-295, in the experiment on LOX IMVI and in the experiment on PC-3 was > 100 µM (inactive) throughout.
With `Nc1ncn(C/C=C/c2ccccc2)c2ncnc1-2`, the GI50 with SR was 21.4 µM (inactive); in the experiment on Hs-578T it was > 100 µM (inactive); in the experiment on UACC-257, > 100 µM (inactive); in the experiment with M14 it was > 100 µM (inactive); in the experiment on OVCAR-3, > 100 µM (inactive); in the experiment with HT-29, 50.9 µM (inactive). In addition, the GI50 with MCF7, in the experiment with CAKI-1, in the experiment with NCI-H23, in the experiment with RPMI-8226, in the experiment with RXF 393 and with 786-0 was > 100 µM (inactive) in each case. Also, the GI50 in the experiment with UACC-62, in the experiment on SNB-19, in the experiment with COLO 205, with SF-295, in the experiment on LOX IMVI and in the experiment on PC-3 was > 100 µM (inactive) throughout.
As to `O=C(O[C@H]1CCN2C[C@H]3C[C@H](CN4C(=O)CCC[C@H]34)[C@@H]2C1)c1ccc(O)cc1`, the GI50 in the experiment on SR, in the experiment on Hs-578T, with UACC-257, in the experiment with M14, in the experiment with OVCAR-3 and in the experiment on HT-29 was > 100 µM (inactive) each time. For the same compound, the GI50 with MCF7, with CAKI-1, in the experiment on NCI-H23, with RPMI-8226, with RXF 393 and in the experiment on 786-0 was > 100 µM (inactive) each time. Moreover, the GI50 in the experiment on UACC-62, in the experiment on SNB-19, in the experiment on NCI-H226, in the experiment on COLO 205, with SF-295 and in the experiment on LOX IMVI was > 100 µM (inactive) each time. Besides, the GI50 with PC-3 was > 100 µM (inactive).
On to `CNCC(SC)c1ccc(O)c(O)c1` (stereo not given), for which the GI50 in the experiment on Hs-578T is 66.1 µM (inactive); in the experiment on UACC-257, 14.1 µM (inactive); in the experiment on HL-60 it was 12.9 µM (inactive); in the experiment with M14, 52.8 µM (inactive); in the experiment on OVCAR-3 it was 14.1 µM (inactive); in the experiment with HT-29, 30.7 µM (inactive). The GI50 in the experiment with MCF7 was 29.2 µM (inactive); with CAKI-1 it was 20.5 µM (inactive); with NCI-H23 it was 31 µM (inactive); with RPMI-8226, 21.1 µM (inactive); with RXF 393, 33.6 µM (inactive); with 786-0, 18.6 µM (inactive). In addition, the GI50 with UACC-62 was 41.6 µM (inactive); in the experiment with SNB-19, > 100 µM (inactive); with NCI-H226, > 100 µM (inactive); with COLO 205, 17.1 µM (inactive); in the experiment on SF-295, > 100 µM (inactive); in the experiment with LOX IMVI, 24.7 µM (inactive). Also, in the experiment with PC-3, the GI50 was 69.2 µM (inactive).
On to `CCCSc1ccc2[nH]c(N3C(=O)/C(=C/c4ccc(SC)cc4)N=C3c3ccccc3)cc2c1`, for which the GI50 in the experiment with Hs-578T is 28.1 µM (inactive); in the experiment on UACC-257 it was 17.3 µM (inactive); in the experiment with HL-60, 9.14 µM (inactive); in the experiment on M14, 21.4 µM (inactive); with OVCAR-3, 24.6 µM (inactive); in the experiment on HT-29, 22.7 µM (inactive). Besides, the GI50 in the experiment on MCF7 is 14.1 µM (inactive); in the experiment with CAKI-1, 38.8 µM (inactive); in the experiment with NCI-H23 it was > 34.4 µM (inactive); in the experiment on RPMI-8226, 0.242 µM (active); in the experiment with RXF 393, 19.9 µM (inactive); with 786-0 it was 26.2 µM (inactive). The GI50 in the experiment on UACC-62 was 24.7 µM (inactive); in the experiment with SNB-19, 29.1 µM (inactive); in the experiment with NCI-H226, > 50 µM (inactive); with COLO 205, 14.2 µM (inactive); with SF-295, 29.7 µM (inactive); with LOX IMVI, 35.7 µM (inactive). The GI50 in the experiment with PC-3 is 25.9 µM (inactive).
For `O=C1Nc2ccccc2C(=O)/C1=C/NC(=S)NC1CCCCC1`, the GI50 in the experiment on Hs-578T, in the experiment with UACC-257, in the experiment on HL-60, in the experiment on M14, in the experiment with OVCAR-3 and with HT-29 was > 100 µM (inactive) throughout. In addition, the GI50 in the experiment on MCF7, in the experiment on CAKI-1, with NCI-H23, in the experiment on RPMI-8226, in the experiment with RXF 393 and in the experiment on 786-0 was > 100 µM (inactive) throughout. The GI50 in the experiment with UACC-62, in the experiment on SNB-19, in the experiment with NCI-H226, with COLO 205, in the experiment with SF-295 and with LOX IMVI was > 100 µM (inactive) throughout. Moreover, in the experiment with PC-3, the GI50 was > 100 µM (inactive).
With `CC12CN(CC[N+](C)(C)C)CC1(C)C1CCC2O1` (stereo not given), the GI50 in the experiment on SR, in the experiment on Hs-578T, in the experiment on UACC-257, with M14, in the experiment on OVCAR-3 and in the experiment with HT-29 was > 100 µM (inactive) throughout. Also, the GI50 with MCF7, in the experiment with CAKI-1, with NCI-H23, in the experiment on RPMI-8226, with RXF 393 and in the experiment on 786-0 was > 100 µM (inactive) each time. The GI50 with UACC-62, in the experiment with SNB-19, in the experiment on NCI-H226, in the experiment with COLO 205, in the experiment with SF-295 and in the experiment with LOX IMVI was > 100 µM (inactive) throughout. Moreover, in the experiment on PC-3, the GI50 is > 100 µM (inactive).
As to `CC(O)CN1c2ccccc2Sc2ccc(Cl)cc21` (stereo not given), the GI50 in the experiment on Hs-578T, in the experiment on UACC-257, in the experiment on HL-60, in the experiment with M14, in the experiment with OVCAR-3 and in the experiment with HT-29 was > 10 µM (inactive) in each case. The GI50 in the experiment on MCF7, in the experiment on CAKI-1, in the experiment with NCI-H23, in the experiment with RPMI-8226, in the experiment on RXF 393 and in the experiment with 786-0 was > 10 µM (inactive) throughout. In addition, the GI50 in the experiment with UACC-62, in the experiment on SNB-19, in the experiment on NCI-H226, with COLO 205, in the experiment on SF-295 and in the experiment on LOX IMVI was > 10 µM (inactive) throughout. The GI50 in the experiment with PC-3 is > 10 µM (inactive).
In the case of `O=C(Nc1cccc(F)c1)c1cc2ccc(O)cc2o/c1=N\c1cccc(F)c1`, the GI50 is 4.5 µM (inactive) in the experiment with SR; 3.09 µM (inactive) in the experiment on Hs-578T; 9.68 µM (inactive) in the experiment with UACC-257; 2.65 µM (inactive) in the experiment on HL-60; 7.73 µM (inactive) in the experiment on M14; 4.91 µM (inactive) in the experiment on OVCAR-3. Besides, the GI50 with HT-29 was > 100 µM (inactive); in the experiment on MCF7 it was 3.58 µM (inactive); in the experiment with CAKI-1 it was 15.3 µM (inactive); in the experiment on NCI-H23, 2.34 µM (inactive); in the experiment with RPMI-8226, 2.87 µM (inactive); in the experiment with 786-0, 7.85 µM (inactive). Also, the GI50 is 5.57 µM (inactive) with UACC-62; 8.97 µM (inactive) with SNB-19; > 100 µM (inactive) in the experiment with COLO 205; 13.6 µM (inactive) in the experiment with SF-295; 3.27 µM (inactive) with LOX IMVI; 17.9 µM (inactive) in the experiment on PC-3.
As to `COc1c(OC/C=C(\C)CCC=C(C)C)ccc2ccc(=O)oc12` [COLLININ], the GI50 in the experiment on SR is 61.5 µM (inactive); in the experiment with Hs-578T it was 90.4 µM (inactive); in the experiment with UACC-257 it was > 100 µM (inactive); with HL-60, 43.4 µM (inactive); in the experiment on M14, > 100 µM (inactive); in the experiment with OVCAR-3, > 100 µM (inactive). In addition, the GI50 with HT-29 is 94.4 µM (inactive); with MCF7, > 100 µM (inactive); in the experiment on CAKI-1, > 100 µM (inactive); in the experiment with NCI-H23, > 100 µM (inactive); in the experiment on RPMI-8226, > 100 µM (inactive); in the experiment on 786-0 it was > 100 µM (inactive). Moreover, the GI50 in the experiment with UACC-62 is 94.2 µM (inactive); with SNB-19, 65.2 µM (inactive); in the experiment on COLO 205, > 100 µM (inactive); with SF-295, > 100 µM (inactive); in the experiment with LOX IMVI it was > 100 µM (inactive); in the experiment on PC-3 it was 24.2 µM (inactive).
